Results on 33 compounds are retold here after patent publication US10308620B2, “Muscarinic M1 receptor positive allosteric modulators” (SUVEN LIFE SCIENCES LIMITED, priority 2015, dated 2019).

Molecules are shown by their SMILES. Where a name gives a salt, the structure may show the parent alone.

As usually defined, the EC50 is the midpoint of the concentration-response curve.

The test concerns the target recombinant human Muscarinic M1 receptor (Homo sapiens (Human), UniProt P11229). In words: Allosteric potency EC50, CHO cells with pCRE-Luc reporter, in presence of EC20 of acetylcholine. In kind it is cell-based. As to conditions: 4 hours. The procedure: Determination of Allosteric Potency EC50 Values for Muscarinic M1 Receptor:
A stable CHO cell line expressing recombinant human Muscarinic M1 receptor and pCRE-Luc reporter system was used for cell-based assay. The assay offers a non-radioactive based approach to determine binding of a compound to GPCRs. In this specific assay, the level of intracellular cyclic AMP which is modulated by activation or inhibition of the receptor is measured. The recombinant cells harbor luciferase reporter gene under the control of cAMP response element.
The above cells were grown in 96 well clear bottom white plates in Hams F12 medium containing 10% fetal bovine serum (FBS). Prior to the addition of compounds or standard agonist, cells were serum starved overnight. Increasing concentrations of test compounds were added along with EC20 of acetylcholine in OptiMEM medium to the cells. The incubation was continued at 37° C. in CO2 incubator for 4 hours. Medium was removed and cells were washed with phosphate buffered saline. The cells were lysed and luciferase activity was measured in a Luminometer. Luminescence units were plotted against the compound concentrations using Graphpad software. EC50 values of the compounds were defined as the concentration required in stimulating the luciferase activity by 50% in presence of EC20 of acetylcholine.

Chain of recombinant human Muscarinic M1 receptor (P11229 whole entry): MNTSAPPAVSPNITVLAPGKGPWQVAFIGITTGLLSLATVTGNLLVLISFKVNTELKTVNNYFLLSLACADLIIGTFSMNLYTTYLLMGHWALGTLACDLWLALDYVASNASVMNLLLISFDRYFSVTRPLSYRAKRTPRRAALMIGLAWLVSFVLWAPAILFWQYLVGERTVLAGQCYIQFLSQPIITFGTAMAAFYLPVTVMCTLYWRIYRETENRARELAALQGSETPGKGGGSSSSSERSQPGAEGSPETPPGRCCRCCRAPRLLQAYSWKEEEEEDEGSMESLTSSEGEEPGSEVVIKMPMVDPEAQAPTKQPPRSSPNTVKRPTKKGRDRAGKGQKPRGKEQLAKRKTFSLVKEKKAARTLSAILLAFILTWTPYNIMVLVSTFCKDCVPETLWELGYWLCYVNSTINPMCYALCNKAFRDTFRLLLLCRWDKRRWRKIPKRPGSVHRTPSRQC

On to `O=C(N[C@H]1CCCC[C@@H]1O)C1=CN(Cc2ccccc2F)c2ncccc2O1` [Example 3, N-(cis-1S,2S-2-Hydroxycyclohexyl)-4-{2-fluorobenzyl}-4H-pyrido[3,2-b][1,4]oxazine-2-carboxamide], for which the EC50 came to 1150 nM.

Regarding `O=C(N[C@H]1CCCC[C@@H]1O)C1=CN(Cc2ccccc2)c2ncccc2O1` [Example 30, N-(cis-1S, 2S-2-Hydroxycyclohexyl)-4-benzyl-4H-pyrido[3,2-b][1,4]oxazine-2-carboxamide], the EC50 amounted to 955 nM.

On to `O=C(N[C@H]1CCCC[C@@H]1O)C1=CN(Cc2cccc(F)c2)c2ccccc2S1` [Example 86, N-(cis-1S,2S-2-Hydroxycyclohexyl)-4-(3-fluorobenzyl)-4H-benzo[1,4]thiazine-2-carboxamide], for which the EC50 was determined as 936 nM.

For the compound `COc1ccc(CN2C=C(C(=O)NCC(C)(C)O)Oc3ccccc32)cn1` [Example 16, N-(2-Hydroxy-2-methylpropyl)-4-(2-methoxypyridin-5-ylmethyl)-4H-benzo[1,4]oxazine-2-carboxamide], the EC50 was found to be 1350 nM.

Consider `O=C(N[C@H]1CCCC[C@@H]1O)C1=CN(Cc2ccc(Cl)nc2)c2ccccc2S1` [Example 91, N-(cis-1S,2S-2-Hydroxycyclohexyl)-4-{2-chloropyridin-5-ylmethyl}-4H-benzo[1,4]thiazine-2-carboxamide], for which the EC50 came out at 141 nM.

With `O=C(N[C@H]1CCCC[C@@H]1O)C1=CN(Cc2ccccc2F)c2cccc(F)c2O1` [Example 2, N-(cis-1S,2S-2-Hydroxycyclohexyl)-4-(2-fluorobenzyl)-8-fluoro-4H-benzo[1,4]oxazine-2-carboxamide], the EC50 was 134 nM.

As to `Cn1ccc(-c2cc(CN3C=C(C(=O)N[C@H]4CCCC[C@@H]4O)Oc4ccccc43)ccn2)n1` [Example 59, N-(cis-1S,2S-2-Hydroxycyclohexyl)-4-[12-(1-methyl-1H-pyrazol-3-yl)-pyridin-4-ylmethyl]-4H-benzo[1,4]oxazine-2-carboxamide], the EC50 was 1010 nM.

Take `O=C(Nc1ccccc1CO)C1=CN(Cc2cccc(F)c2F)c2ccccc2O1` [Example 45, N-(2-Hydroxymethylphenyl)-4-(2,3-difluorobenzyl)-4H-benzo[1,4]oxazine-2-carboxamide]: the EC50 worked out at 1580 nM.

For the compound `O=C(N[C@H]1CCCC[C@@H]1O)C1=CN(Cc2ccnc(-c3ccccc3)c2)c2ccccc2O1` [Example 52, N-(cis-1S,2S-2-Hydroxycyclohexyl)-4-(2-phenylpyridin-4-ylmethyl)-4H-benzo[1,4]oxazine-2-carboxamide], the EC50 was 1350 nM.

For `O=C(N[C@H]1CCCC[C@@H]1O)C1=CN(Cc2ccnc(Cl)c2)c2ccccc2O1` [Example 24, N-(cis-1S,2S-2-Hydroxycyclohexyl)-4-(2-chloropyridin-4-ylmethyl)-4H-benzo[1,4]oxazine-2-carboxamide], the EC50 was found to be 514 nM.

As to `O=C(N[C@H]1CCCC[C@@H]1O)C1=CN(Cc2cccc(F)c2F)c2ccccc2[S+]1[O-]` (stereo partly drawn) [Example 93, N-(cis-1S,2S-2-Hydroxycyclohexyl)-4-(2,3-difluorobenzyl)-1-oxo-4H-benzo[1,4]thiazine-2-carboxamide], the EC50 came out at 906 nM.

Consider `O=C(N[C@H]1CCCC[C@@H]1O)C1=CN(Cc2ccccc2F)c2c(F)cccc2O1` [Example 55, N-(cis-1S,2S-2-Hydroxycyclohexyl)-4-(2-fluorobenzyl)-5-fluoro-4H-benzo[1,4]oxazine-2-carboxamide], for which the EC50 turned out to be 828 nM.

On to `O=C(Nc1ccccc1CO)C1=CN(Cc2ccccc2F)c2ccccc2O1` [Example 43, N-(2-Hydroxymethylphenyl)-4-(2-fluorobenzyl)-4H-benzo[1,4]oxazine-2-carboxamide], for which the EC50 came to 1620 nM.

As to `O=C(N[C@H]1CCCC[C@@H]1O)C1=CN(Cc2ccc(F)cc2)c2ncccc2O1` [Example 35, N-(cis-1S,2S-2-Hydroxycyclohexyl)-4-(4-fluorobenzyl)-4H-pyrido[3,2-b][1,4]oxazine-2-carboxamide], the EC50 was 1580 nM.

`COc1ccc(CN2C=C(C(=O)NCC(C)(C)O)Oc3ccccc32)cc1` [Example 6, N-(2-Hydroxy-2-methylpropyl)-4-(4-methoxybenzyl)-4H-benzo[1,4]oxazine-2-carboxamide]: the EC50 was 1510 nM.

Take `Cc1cc(-c2cc(CN3C=C(C(=O)N[C@H]4CCCC[C@@H]4O)Oc4ccccc43)ccn2)cnc1F` [Example 58, N-(cis-1S,2S-2-Hydroxycyclohexyl)-4-(6′-fluoro-5′-methyl-[2,3′]bipyridinyl-4-ylmethyl)-4H-benzo[1,4]oxazine-2-carboxamide]: the EC50 was 1340 nM.

Consider `O=C(N[C@H]1CCCC[C@@H]1O)C1=CN(Cc2ccccn2)c2c(F)cccc2O1` [Example 56, N-(cis-1S,2S-2-Hydroxycyclohexyl)-4-(pyridin-2-ylmethyl)-5-fluoro-4H-benzo[1,4]oxazine-2-carboxamide], for which the EC50 worked out at 1480 nM.

For `Cc1ncccc1CN1C=C(C(=O)N[C@H]2CCCC[C@@H]2O)Oc2ccccc21` [Example 27, N-(cis-1S,2S-2-Hydroxycyclohexyl)-4-(2-methylpyridin-3-ylmethyl)-4H-benzo[1,4]oxazine-2-carboxamide], the EC50 is 1370 nM.

`O=C(NC1CCNCC1O)C1=CN(Cc2cccc(F)c2F)c2cccc(F)c2O1` (stereo not drawn) [Example 75, N-(3-Hydroxypiperidin-4-yl)-4-(2,3-difluorobenzyl)-8-fluoro-4H-benzo[1,4]oxazine-2-carboxamide trifluoroacetate]: the EC50 amounted to 160 nM.

On to `O=C(N[C@H]1CCCC[C@@H]1O)C1=CN(Cc2ccccc2F)c2c(F)ccc(F)c2O1` [Example 61, N-(cis-1S,2S-2-Hydroxycyclohexyl)-4-(2-fluorobenzyl)-5,8-difluoro-4H-benzo[1,4]oxazine-2-carboxamide], for which the EC50 amounted to 219 nM.

With `O=C(N[C@H]1CCCC[C@@H]1O)C1=CN(Cc2ccccn2)c2ccccc2[S+]1[O-]` (stereo partly drawn) [Example 96, N-(cis-1 S, 2S-2-Hydroxycyclohexyl)-4-{pyridin-2-ylmethyl}-1-oxo-4H-benzo[1,4]thiazine-2-carboxamide], the EC50 stood at 2160 nM.

For `O=C(N[C@H]1CCCC[C@@H]1O)C1=CN(Cc2ccccn2)c2ccccc2O1` [Example 25, N-(cis-1S,2S-2-Hydroxycyclohexyl)-4-(pyridin-2-ylmethyl)-4H-benzo[1,4]oxazine-2-carboxamide], the EC50 was found to be 911 nM.

Turning to `O=C(N[C@H]1CCCC[C@@H]1O)C1=CN(Cc2ccc(F)cc2)c2ccccc2O1` [Example 13, N-(cis-1S,2S-2-Hydroxycyclohexyl)-4-(4-fluorobenzyl)-4H-benzo[1,4]oxazine-2-carboxamide], the EC50 was found to be 907 nM.

As to `O=C(N[C@H]1CCCC[C@@H]1O)C1=CN(Cc2cccc(F)c2)c2ccccc2[S+]1[O-]` (stereo partly drawn) [Example 95, N-(cis-1S,2S-2-Hydroxycyclohexyl)-4-{3-fluorobenzyl}-1-oxo-4H-benzo[1,4]thiazine-2-carboxamide], the EC50 worked out at 1520 nM.

For the compound `CC(C)(O)CNC(=O)C1=CN(Cc2ccc(F)cc2)c2ccccc2O1` [Example 14, N-(2-Hydroxy-2-methylpropyl)-4-(4-fluorobenzyl)-4H-benzo[1,4]oxazine-2-carboxamide], the EC50 turned out to be 1360 nM.

In the case of `O=C(NC1CCNCC1F)C1=CN(Cc2ccccc2F)c2cccc(F)c2O1` (stereo not drawn) [Example 73, N-(3-Fluoropiperidin-4-yl)-4-(2-fluorobenzyl)-8-fluoro-4H-benzo[1,4]oxazine-2-carboxamide hydrochloride], the EC50 was determined as 2370 nM.

Turning to `COc1cccc(CN2C=C(C(=O)NCC(C)(C)O)Oc3ccccc32)c1` [Example 10, N-(2-Hydroxy-2-methylpropyl)-4-(3-methoxybenzyl)-4H-benzo[1,4]oxazine-2-carboxamide], the EC50 stood at 1550 nM.

Turning to `O=C(N[C@H]1CCCC[C@@H]1O)C1=CN(Cc2ccc(F)cc2)c2ccccc2S1` [Example 89, N-(cis-1S,2S-2-Hydroxycyclohexyl)-4-{4-fluorobenzyl}-4H-benzo[1,4]thiazine-2-carboxamide], the EC50 came out at 460 nM.

`O=C(N[C@@H]1CCC[C@H]1O)C1=CN(Cc2cccc(F)c2F)c2ccccc2O1` [Example 39, N-(trans-1R,2R-2-Hydroxycyclopentyl)-4-(2,3-difluorobenzyl)-4H-benzo[1,4]oxazine-2-carboxamide]: the EC50 amounted to 1550 nM.

Regarding `O=C(N[C@H]1CCCC[C@@H]1O)C1=CN(Cc2cccc(F)c2F)c2cccc(F)c2O1` [Example 29, N-(cis-1S,2S-2-Hydroxycyclohexyl)-4-(2,3-difluorobenzyl)-8-fluoro-4H-benzo[1,4]oxazine-2-carboxamide], the EC50 came to 140 nM.

On to `COc1ccc(CN2C=C(C(=O)N[C@H]3CCCC[C@@H]3O)Oc3ccccc32)cn1` [Example 15, N-(cis-1S,2S-2-Hydroxycyclohexyl)-4-(2-methoxypyridin-5-ylmethyl)-4H-benzo[1,4]oxazine-2-carboxamide], for which the EC50 is 591 nM.

For the compound `O=C(N[C@H]1CCCC[C@@H]1O)C1=CN(Cc2ccncc2F)c2ccccc2O1` [Example 34, N-(cis-1S,2S-2-Hydroxycyclohexyl)-4-(3-fluoropyridin-4-ylmethyl)-4H-benzo[1,4]oxazine-2-carboxamide], the EC50 stood at 1520 nM.

With `O=C(N[C@H]1CCCC[C@@H]1O)C1=CN(Cc2ccncc2)c2ccccc2S1` [Example 90, N-(cis-1S,2S-2-Hydroxycyclohexyl)-4-{pyridin-4-ylmethyl}-4H-benzo[1,4]thiazine-2-carboxamide], the EC50 turned out to be 599 nM.
